Source: the NIST ThermoML archive (doi:10.1021/je500845d)
± gives the expanded uncertainty stated by the source.

Experiments:
[1] = Molar enthalpy of transition or fusion; settings: Crystal; DSC
[2] = Crystal; DTA

SMILES | Molar enthalpy of transition or fusion [1] | Normal melting temperature [2]
O=C(O)C(O)c1ccccc1Br (stereo not given) [2-(2-bromophenyl)-2-hydroxyacetic acid] | 5.33 ± 0.311 kcal/mol | 86.8 ± 1 °C
O=C(O)C(O)c1cccc(Br)c1 (stereo not given) [2-(3-bromophenyl)-2-hydroxyacetic acid] | 7.19 ± 0.311 kcal/mol | 119.6 ± 1 °C
O=C(O)C(O)c1ccc(Br)cc1 (stereo not given) [2-(4-bromophenyl)-2-hydroxyacetic acid] | 4.25 ± 0.311 kcal/mol | 118.1 ± 1 °C
O=C(O)C(O)c1ccc(Cl)cc1F (stereo not given) [2-(4-chloro-2-fluorophenyl)-2-hydroxyacetic acid] | 4.23 ± 0.311 kcal/mol | 90.5 ± 1 °C
O=C(O)C(O)c1ccc(Cl)cc1 (stereo not given) [2-(4-chlorophenyl)-2-hydroxyacetic acid] | 3.87 ± 0.311 kcal/mol | 120.1 ± 1 °C
O=C(O)C(O)c1ccc(F)cc1Cl (stereo not given) [2-chloro-4-fluoromandelic acid] | 4.35 ± 0.311 kcal/mol | 97.6 ± 1 °C
O=C(O)C(O)c1ccccc1I (stereo not given) [2-hydroxy-2-(2-iodophenyl)acetic acid] | 5.98 ± 0.311 kcal/mol | 109.0 ± 1 °C
O=C(O)C(O)c1cccc(I)c1 (stereo not given) [2-hydroxy-2-(3-iodophenyl)acetic acid] | 5.88 ± 0.311 kcal/mol | 97.0 ± 1 °C
O=C(O)C(O)c1ccc(I)cc1 (stereo not given) [2-hydroxy-2-(4-iodophenyl)acetic acid] | 7.27 ± 0.311 kcal/mol | 142.2 ± 1 °C
Cc1cccc(C(O)C(=O)O)c1 (stereo not given) [2-hydroxy-2-(m-tolyl)acetic acid] | 6.12 ± 0.311 kcal/mol | 92.4 ± 1 °C
O=C(O)[C@@H](O)c1ccc(Cl)cc1 [(S)-2-(4-chlorophenyl)-2-hydroxyacetic acid] | 6.48 ± 0.311 kcal/mol | 119.6 ± 1 °C

The remaining lines, values ahead:

Molar enthalpy of transition or fusion [1] | Normal melting temperature [2] | SMILES
5.14 ± 0.311 kcal/mol | 103.8 ± 1 °C | Cc1ccccc1C(O)C(=O)O (stereo not given) [2-hydroxy-2-(o-tolyl)acetic acid]
6.12 ± 0.311 kcal/mol | 143.8 ± 1 °C | Cc1ccc(C(O)C(=O)O)cc1 (stereo not given) [2-hydroxy-2-(p-tolyl)acetic acid]
5.35 ± 0.311 kcal/mol | 119.4 ± 1 °C | O=C(O)[C@@H](O)c1ccccc1Br [(S)-2-(2-bromophenyl)-2-hydroxyacetic acid]
4.8 ± 0.311 kcal/mol | 132.8 ± 1 °C | O=C(O)[C@@H](O)c1ccc(F)cc1Cl [(S)-2-(2-chloro-4-fluorophenyl)-2-hydroxyacetic acid]
5.5 ± 0.311 kcal/mol | 103.1 ± 1 °C | O=C(O)[C@@H](O)c1cccc(Br)c1 [(S)-2-(3-bromophenyl)-2-hydroxyacetic acid]
4.11 ± 0.311 kcal/mol | 127.6 ± 1 °C | O=C(O)[C@@H](O)c1ccc(Br)cc1 [(S)-2-(4-bromophenyl)-2-hydroxyacetic acid]
3.61 ± 0.287 kcal/mol | 107.8 ± 1 °C | O=C(O)[C@@H](O)c1ccc(Cl)cc1F [(S)-2-(4-chloro-2-fluorophenyl)-2-hydroxyacetic acid]
6.98 ± 0.311 kcal/mol | 109.7 ± 1 °C | Cc1cccc([C@H](O)C(=O)O)c1 [(S)-2-hydroxy-2-(m-tolyl)acetic acid]
5.35 ± 0.311 kcal/mol | 131.5 ± 1 °C | Cc1ccc([C@H](O)C(=O)O)cc1 [(S)-2-hydroxy-2-(p-tolyl)acetic acid]
